Assay results from patent US20170368082A1, “FORMULATIONS OF BRINCIDOFOVIR” (priority 2016, published 2017).
Several values for one entry are separate records, joined by “and”; a condition that tells them apart may be missing. Identical values can stand only once.

Experiment: Tissue distribution by quantitative whole-body autoradiography (QWBA)
Type: in vivo, male Sprague Dawley and Long-Evans rats
Settings: for Concentration of radioactivity: SD rat
Experimental: The study utilized 4 groups of male SD rats (albino), and 3 groups of male LE rats (pigmented); a total of 39 rats. All animals were obtained from Hilltop Lab Animals, Inc. (Scottdale, Pa.). […] Rats in Group 5 were administered a single 2-h IV infusion of [^14C]brincidofovir at a target dose of 2 mg/kg. […] Three dosing formulations (one for high dose IV, one for low dose IV, and one for PO dose) were prepared at QPS on the day of dosing. The IV formulation for Groups 1, 2, 3, and 4 contained a vehicle of 10 mM sodium phosphate buffer in 5% dextrose solution at pH 8.0(±0.1).
Each animal, at their respective termination time points, was euthanized for QWBA analysis immediately after blood collection. One rat per time point per Group was euthanized as listed below.
The blood samples were maintained on wet ice (approximately 4° C.) and then centrifuged to obtain plasma within 1 h of the blood collection time. Centrifuge settings were recorded in the study notebook. Duplicate aliquots of plasma (0.050 mL) were analyzed for radioactivity using direct counting by LSC, and residual plasma was stored at approximately −70° C. and was saved for possible future analysis under a separate study protocol. Residual red blood cells were discarded as radioactive waste.
The pinna, distal limbs, hair, and tail were removed from each frozen carcass and each frozen carcass was embedded in an aqueous suspension of approximately 2% (w/v) carboxymethylcellulose and frozen into a block. The blocks were stored at approximately −20° C. prior to sectioning. Each blocked carcass was mounted on the object stage of a cryomicrotome (Leica CM3600 Cryomacrocut, Nussloch, Germany and Vibratome 9800, St. Louis, Mo.) maintained at approximately −20° C. and internal standards (3), which were plasma fortified with [^14C]-glucose at one concentration (approximately 0.05 μCi/mL), were placed into the frozen blocks, prior to sectioning, and were used for section thickness quality control. A number of whole-body sections (approximately 40 μm thick) were taken in the sagittal plane at various levels of interest using a whole-body cryomicrotome set at −20° C. Sagittal sections (20-50 μm thick) of frozen carcasses were exposed to phosphor imaging plates. Regions of images in tissues were converted to concentrations using standards. All of the major tissues, organs, and biological fluids were represented.
Tissue concentration data was determined for the following tissues and/or contents: adipose (brown and white), adrenal gland, bile (in duct), blood (cardiac), bone, bone marrow, brain (cerebrum, cerebellum, medulla), cecum (and contents), large intestine (and contents), epididymis, esophagus, eye (uvea and lens), Harderian gland, heart, kidney (cortex and medulla), liver, lung, lymph node, pancreas, pituitary gland, prostate gland, salivary gland, seminal vesicles, skeletal muscle, skin (pigmented and non-pigmented), small intestine (and contents), stomach (gastric mucosa and contents), spleen, spinal cord, testis, thymus, thyroid, and urinary bladder (and contents).
The imaging plate and sections were placed in light-tight exposure cassettes, in a copper-lined lead safe, for a 4-day exposure at room temperature. […] Quantification was performed by image densitometry using MCD image analysis software (v. 7.0, Interfocus Imaging Ltd) and a standard curve constructed from the integrated response [i.e., Molecular Dynamics Counts per square millimeter (MDC/mm^2)] and the nominal concentrations of the ^14C-calibration standards. The concentrations of radioactivity were expressed as the μg equivalents of [^14C]brincidofovir per gram sample (μg equiv/g). A lower limit of quantification (LLOQ) was applied to the data (See section 6.7.4).
Tissue concentrations that fell below the LLOQ were identified as being below the quantification limit (BQL). Tissue areas that were not visualized on autoradiographic images were identified as no sample (NS) and reported as BQL.

[1] = Group 6 SD albino rats, oral 15 mg/kg, c2 2 h, c3 24 h, c4 168 h, LLOQ 0.034

In the case of `CCCCCCCCCCCCCCCCOCCCOP(=O)(O)CO[C@H](CO)Cn1ccc(N)nc1=O` [[^14C]brincidofovir], the “Bile Cmax, IV relative to oral” value (15 mg/kg) is reported as 14 times, the “Small intestinal tissue concentration, IV relative to oral” value (15 mg/kg) is reported as “approximately 1/10” and the “Small intestine Cmax, oral compared to IV” value (15 mg/kg) is reported as 6 fold. For the same compound, the “Tissue t1/2: adrenal gland” value (15 mg/kg 2-h IV) was 10.6 days, the “Tissue t1/2: blood (cardiac)” value (15 mg/kg 2-h IV) was 14.2 h and the “Tissue t1/2: bone marrow” value (15 mg/kg 2-h IV) was 11.5 days. The “Tissue t1/2: lymph node” value (15 mg/kg 2-h IV) was 14.4 days, the “Tissue t1/2: skin non-pigmented” value (15 mg/kg 2-h IV) was 12.9 days and the “Tissue t1/2: spleen” value (15 mg/kg 2-h IV) was 15.8 days. The “Tissue t1/2: adipose (brown)” value (15 mg/kg PO) was 234 h, the “Tissue t1/2: esophagus” value (15 mg/kg PO) was 37.2 h and the “Tissue t1/2: lung” value (15 mg/kg PO) was 93 h. The “Tissue t1/2: pituitary gland” value (15 mg/kg PO) was 106 h, the “Tissue t1/2: small intestine” value (15 mg/kg PO) was 98.1 h and the “Tissue t1/2: spleen” value (15 mg/kg PO) was 4.79 days. It also gave a Concentration of radioactivity (Adipose (brown), 2 h, 15 mg/kg IV) of 2.088 μg equiv./g, a Concentration of radioactivity (Adipose (brown), 24 h, 15 mg/kg IV) of 0.473 μg equiv./g and a Concentration of radioactivity (Adipose (brown), 168 h, 15 mg/kg IV) of 0.391 μg equiv./g. For the same compound, the Concentration of radioactivity (Adipose (white), 2 h, 15 mg/kg IV) was 0.386 μg equiv./g, the Concentration of radioactivity (Adipose (white), 24 h, 15 mg/kg IV) was 0.135 μg equiv./g and the Concentration of radioactivity (Adipose (white), 168 h, 15 mg/kg IV) was “BQL (BQL = Value is below the LLOQ)”. The Concentration of radioactivity (Adrenal Gland, 2 h, 15 mg/kg IV) was 4.308 μg equiv./g, the Concentration of radioactivity (Adrenal Gland, 24 h, 15 mg/kg IV) was 1.680 μg equiv./g and the Concentration of radioactivity (Adrenal Gland, 168 h, 15 mg/kg IV) was 0.647 μg equiv./g. It also gave a Concentration of radioactivity (Bile (in duct), 24 h, 15 mg/kg IV) of 1.469 μg equiv./g, a Concentration of radioactivity (Bile (in duct), 168 h, 15 mg/kg IV) of 0.058 μg equiv./g and a Concentration of radioactivity (Blood (cardiac), 2 h, 15 mg/kg IV) of 6.865 μg equiv./g. The Concentration of radioactivity (Blood (cardiac), 24 h, 15 mg/kg IV) was 0.308 μg equiv./g, the Concentration of radioactivity (Blood (cardiac), 168 h, 15 mg/kg IV) was “BQL (BQL = Value is below the LLOQ)” and the Concentration of radioactivity (Bone Marrow, 2 h, 15 mg/kg IV) was 3.411 μg equiv./g. For the same compound, the Concentration of radioactivity (Bone Marrow, 24 h, 15 mg/kg IV) was 1.219 μg equiv./g, the Concentration of radioactivity (Bone Marrow, 168 h, 15 mg/kg IV) was 0.196 μg equiv./g and the Concentration of radioactivity (Bone, 2 h, 15 mg/kg IV) was 0.449 μg equiv./g. For the same compound, the Concentration of radioactivity (Bone, 24 h, 15 mg/kg IV) was 0.095 μg equiv./g, the Concentration of radioactivity (Bone, 168 h, 15 mg/kg IV) was “BQL (BQL = Value is below the LLOQ)” and the Concentration of radioactivity (Brain (cerebellum), 2 h, 15 mg/kg IV) was 0.907 μg equiv./g. For the same compound, the Concentration of radioactivity (Brain (cerebellum), 24 h, 15 mg/kg IV) was 0.161 μg equiv./g, the Concentration of radioactivity (Brain (cerebellum), 168 h, 15 mg/kg IV) was “BQL (BQL = Value is below the LLOQ)” and the Concentration of radioactivity (Brain (cerebrum), 2 h, 15 mg/kg IV) was 0.803 μg equiv./g. The Concentration of radioactivity (Brain (cerebrum), 24 h, 15 mg/kg IV) was 0.107 μg equiv./g, the Concentration of radioactivity (Brain (cerebrum), 168 h, 15 mg/kg IV) was “BQL (BQL = Value is below the LLOQ)” and the Concentration of radioactivity (Brain (medulla), 2 h, 15 mg/kg IV) was 0.864 μg equiv./g. The Concentration of radioactivity (Brain (medulla), 24 h, 15 mg/kg IV) was 0.132 μg equiv./g, the Concentration of radioactivity (Brain (medulla), 168 h, 15 mg/kg IV) was “BQL (BQL = Value is below the LLOQ)” and the Concentration of radioactivity (Cecum (contents), 2 h, 15 mg/kg IV) was 0.085 μg equiv./g. It also gave a Concentration of radioactivity (Cecum (contents), 24 h, 15 mg/kg IV) of 58.016 μg equiv./g, a Concentration of radioactivity (Cecum, 2 h, 15 mg/kg IV) of 3.658 μg equiv./g and a Concentration of radioactivity (Cecum, 24 h, 15 mg/kg IV) of 5.981 μg equiv./g. For the same compound, the Concentration of radioactivity (Cecum, 168 h, 15 mg/kg IV) was 0.099 μg equiv./g, the Concentration of radioactivity (Epididymis, 2 h, 15 mg/kg IV) was 2.391 μg equiv./g and the Concentration of radioactivity (Epididymis, 24 h, 15 mg/kg IV) was 0.566 μg equiv./g. For the same compound, the Concentration of radioactivity (Epididymis, 168 h, 15 mg/kg IV) was 0.234 μg equiv./g, the “Concentration, Seminal Vesicles” value (G4 15 mg/kg IV, c3 2 h, c6 8 h, c9 24 h, c12 72 h) was 1.374 μg equiv/g tissue and 1.834 μg equiv/g tissue and 1.717 μg equiv/g tissue and 1.127 μg equiv/g tissue and the “Concentration, Eye (lens)” value (G5 2 mg/kg IV, c2 2 h, c5 8 h, c8 24 h, c11 72 h, LLOQ 0.005) was “BQL”. For the same compound, the Urinary bladder contents (Group 3, 2 h) was 47.0 μg equiv/g, the “Concentration at Tmax: kidney cortex” value (Group 3 SD, 15 mg/kg 2-h IV) was 106.5 μg equiv/g and the “Concentration at Tmax: kidney medulla” value (Group 3 SD, 15 mg/kg 2-h IV) was 33.4 μg equiv/g. The “Concentration at Tmax: liver” value (Group 3 SD, 15 mg/kg 2-h IV) was 229.4 μg equiv/g, the “Concentration at Tmax: small intestine” value (Group 3 SD, 15 mg/kg 2-h IV) was 43.7 μg equiv/g and the “Concentration at Tmax: urinary bladder” value (Group 3 SD, 15 mg/kg 2-h IV) was 36.0 μg equiv/g. The “Highest observed concentration in blood” value (Group 3 SD, 15 mg/kg IV, 2 h) was 6.9 μg equiv/g, the “Concentration in spleen at 840 h post-dose” value (Group 4, 15 mg/kg IV) was 0.270 μg equiv/g and the Urinary bladder contents (Group 4, 4 h) was 814.4 μg equiv/g. For the same compound, the “Concentration at Tmax: kidney cortex” value (Group 4 LE, 15 mg/kg 2-h IV) was 97.3 μg equiv/g, the “Concentration at Tmax: kidney medulla” value (Group 4 LE, 15 mg/kg 2-h IV) was 27.0 μg equiv/g and the “Concentration at Tmax: liver” value (Group 4 LE, 15 mg/kg 2-h IV) was 229.7 μg equiv/g. For the same compound, the “Concentration at Tmax: small intestine” value (Group 4 LE, 15 mg/kg 2-h IV) was 71.0 μg equiv/g, the “Concentration at Tmax: urinary bladder” value (Group 4 LE, 15 mg/kg 2-h IV) was 22.8 μg equiv/g and the “Highest observed concentration in blood” value (Group 4 LE, 15 mg/kg IV, 2 h) was 5.3 μg equiv/g. The Bile (Group 5, 2 h) was 32.7 μg equiv/g, the Urinary bladder contents (Group 5, 2 h) was 22.9 μg equiv/g and the “Concentration at Tmax: kidney cortex” value (Group 5 LE, 2 mg/kg 2-h IV) was 11.0 μg equiv/g. The “Concentration at Tmax: kidney medulla” value (Group 5 LE, 2 mg/kg 2-h IV) was 3.4 μg equiv/g, the “Concentration at Tmax: large intestine” value (Group 5 LE, 2 mg/kg 2-h IV) was 1.0 μg equiv/g and the “Concentration at Tmax: liver” value (Group 5 LE, 2 mg/kg 2-h IV) was 34.2 μg equiv/g. The “Concentration at Tmax: small intestine” value (Group 5 LE, 2 mg/kg 2-h IV) was 2.5 μg equiv/g, the “Highest observed concentration in blood” value (Group 5 LE, 2 mg/kg IV, 2 h) was 0.771 μg equiv/g and the Bile (Group 6, 2 h) was 9.7 μg equiv/g. The Urinary bladder contents (Group 6, 24 h) was 39.9 μg equiv/g, the “Concentration of radioactivity, Brain (cerebrum)” value [1] was “BQL” and the “Concentration of radioactivity, Brain (medulla)” value [1] was “BQL”. The “Concentration of radioactivity, Eye (lens)” value [1] was “BQL”, the “Concentration of radioactivity, Spinal Cord” value [1] was “BQL” and the “Concentration of radioactivity, Epididymis” value (Group 6 SD albino rats, oral 15 mg/kg, c2 2 h, c3 24 h, c4 168 h, LLOQ 0.034, 15 mg/kg) was 0.073 μg equiv./g and 0.091 μg equiv./g and 0.075 μg equiv./g. For the same compound, the “Concentration at Tmax: cecum” value (Group 6 SD, 15 mg/kg PO) was 7.5 μg equiv/g and the “Concentration at Tmax: kidney cortex” value (Group 6 SD, 15 mg/kg PO) was 18.4 μg equiv/g.
